Read-outs that look alike come from different tables or passages of the source. Bounds are passed on as bounds.

Usually IC50 stands for the concentration at which inhibition is half-maximal.

This assay concerns the target T1, SARS-CoV-2 PL^Pro (Severe acute respiratory syndrome coronavirus 2, UniProt P0DTD1).
T1 construct: SARS-CoV-2 PL^Pro catalytic domain (746-1060); made in house
Briefly: biochemical. The note with it: read-out: PLpro IC50.

Where [1] appears, read: SARS-CoV-2 PLPro catalytic domain (746-1060), 10 minutes pre-incubation.

Regarding `Cc1ccc(N2CC3CCCN(C)C3C2)cc1C(=O)NC1(c2ccc3c4c(cccc24)C(=O)N3C)CC1` (stereo not drawn) [Compound P39, 2-Methyl-N-(1-(1-methyl-2-oxo-1,2-dihydrobenzo[cd]indol-6-yl)cyclopropyl)-5-(1-methyloctahydro-6H-pyrrolo[3,4-b]pyridin-6-yl)benzamide], the IC50 under setting [1] is under 40 nM.

With `Cc1ccc(N2C[C@H]3C[C@@H]2CN3C)cc1C(=O)NC1(c2ccc3c4c(cccc24)C(=O)N3C)CC1` [Compound P40, 2-Methyl-N-(1-(1-methyl-2-oxo-1,2-dihydrobenzo[cd]indol-6-yl)cyclopropyl)-5-((1R,4R)-5-methyl-2,5-diazabicyclo[2. 2.1]heptan-2-yl)benzamide], the IC50 under setting [1] was under 40 nM. As for `Cc1ccc(N2CCN(CC(C)O)CC2)cc1C(=O)NC1(c2ccc3c4c(cccc24)C(=O)N3C)CC1` (stereo not drawn) [Compound P41, 5-(4-(2-hydroxypropyl)piperazin-1-yl)-2-methyl-N-(1-(1-methyl-2-oxo-1,2-dihydrobenzo[cd]indol-6-yl)cyclopropyl)be nzamide], the IC50 under setting [1] is under 40 nM.

Consider `Cc1ccc(N2CC(N3CCC3)C2)cc1C(=O)NC1(c2ccc3c4c(cccc24)C(=O)N3C)CC1` [Compound P42, 5-([1,3'-diazetidin]-1'-yl)-2-methyl-N-(1-(1-methyl-2-oxo-1,2-dihydrobenzo[cd]indol-6-yl)cyclopropyl)benzamide], for which the IC50 is under 40 nM.

As for `Cc1ccc(N2CC(N3CCC(O)C3)C2)cc1C(=O)NC1(c2ccc3c4c(cccc24)C(=O)N3C)CC1` (stereo not drawn) [Compound P43, 5-(3-(3-hydroxypyrrolidin-1-yl)azetidin-1-yl)-2-methyl-N-(1-(1-methyl-2-oxo-1,2-dihydrobenzo[cd]indol-6-yl)cyclopropyl)benzamide], under setting [1], the IC50 is under 40 nM. As for `Cc1ccc(N2CC(N3CCN(C)C(=O)C3)C2)cc1C(=O)NC1(c2ccc3c4c(cccc24)C(=O)N3C)CC1` [Compound P44, 2-Methyl-N-(1-(1-methyl-2-oxo-1,2-dihydrobenzo[cd]indol-6-yl)cyclopropyl)-5-(3-(4-methyl-3-oxopiperazin-1-yl)azetidin-1-yl)benzamide], the IC50 under setting [1] was in the range of 100 to 1000 nM. The same measure, in the same setting: the figure for `Cc1ccc(N2CC(N3CCCC3)C2)cc1C(=O)NC1(c2ccc3c4c(cccc24)C(=O)N3C)CC1` [Compound P45, 2-methyl-N-(1-(1-methyl-2-oxo-1,2-dihydrobenzo[cd]indol-6-yl)cyclopropyl)-5-(3-(pyrrolidin-1-yl)azetidin-1-yl)benzamide] is under 40 nM. As to `Cc1ccc(N2CC(N3CCOCC3)C2)cc1C(=O)NC1(c2ccc3c4c(cccc24)C(=O)N3C)CC1` [Compound P46, 2-methyl-N-(1-(1-methyl-2-oxo-1,2-dihydrobenzo[cd]indol-6-yl)cyclopropyl)-5-(3-morpholinazetidin-1-yl)benzamide], the IC50 is 100 to 1000 nM. Turning to `Cc1ccc(N2CC3CCN(C)C3C2)cc1C(=O)NC1(c2ccc3c4c(cccc24)C(=O)N3C)CC1` (stereo not drawn) [Compound P47], the half-maximal inhibitory concentration (IC50) is under 40 nM.

With `Cc1ccc(N2CCC(N3CCCC3)C(F)(F)C2)cc1C(=O)NC1(c2ccc3c4c(cccc24)C(=O)N3C)CC1` (stereo not drawn) [Compound P48, 5-(3,3-difluoro-4-(pyrrolidin-1-yl)piperidin-1-yl)-2-methyl-N-(1-(1-methyl-2-oxo-1,2-dihydrobenzo[cd]indol-6-yl)cyclopropyl)benzamide], the IC50 under setting [1] is 100 to 1000 nM.

As for `Cc1ccc(N2CCN(CC(C)(C)O)CC2)cc1C(=O)NC1(c2ccc3c4c(cccc24)C(=O)N3C)CC1` [Compound P49, 5-(4-(2-Hydroxy-2-methylpropyl)piperazin-1-yl)-2-methyl-N-(1-(1-methyl-2-oxo-1,2-dihydrobenzo[cd]indol-6-yl)cyclopropyl)benzamide], the IC50 under setting [1] is under 40 nM. As for `Cc1ccc(N2CCC(N3CCCCC3)C2)cc1C(=O)NC1(c2ccc3c4c(cccc24)C(=O)N3C)CC1` (stereo not drawn) [Compound P50, 2-Methyl-N-(1-(1-methyl-2-oxo-1,2-dihydrobenzo[cd]indol-6-yl)cyclopropyl)-5-(3-(piperidin-1-yl)pyrrolidin-1-yl)benz amide], the IC50 under setting [1] is under 40 nM.

These data come from patent publication EP4745124A1, “NAPHTHALIMIDE-BASED CORONAVIRUS PAPAIN-LIKE PROTEASE INHIBITOR” (Guangzhou National Laboratory, priority 2023, dated 2025).
